Values of other authors in PubChem BioAssay AID1259409 (Chemical Carcinogenesis Research Information System (CCRIS), 2018).

Tested on: rodent chemically induced tumor inhibition, incidence and multiplicity
Experiment: CCRIS tumor inhibitor studies
Details: Species: MOUSE

Row | Compound | tumour outcome (control, treated, inhibition, significance) (Carcinogen: BENZO[A]PYRENE [50-32-8], Dose [Inhibitor]: 0, 150 MG/KG BW IN TRIOCTANOIN 1 D AND 2 HR PRIOR TO CARCINOGEN DOSE (STUDY DURATION: 21 WK), Route [Inhibitor]: GAVAGE, Strain/Sex: CD-1/FEMALE, Target Tissue: Type of Lesion: SKIN: PAPILLOMA, Dose [Carcinogen]: 0.3 UMOL IN 0.2 ML ACETONE ONCE, Promoter: 12-O-TETRADECANOYLPHORBOL-13-ACETATE [16561-29-8]) | tumour outcome (control, treated, inhibition, significance) (Carcinogen: BENZO[A]PYRENE [50-32-8], Dose [Inhibitor]: 150 MG/KG IN 10 µL TRIOCTANOIN ONCE 1 D AND 2 HR PRIOR TO CARCINOGEN DOSE (STUDY DURATION: 21 WK), Route [Inhibitor]: GAVAGE, Strain/Sex: CD-1/FEMALE, Target Tissue: Type of Lesion: SKIN: PAPILLOMA, Dose [Carcinogen]: 0.3 UMOL IN 0.2 ML ACETONE ONCE (STUDY DURATION: 21 WK), Promoter: 12-O-TETRADECANOYLPHORBOL-13-ACETATE [16561-29-8]) | tumour outcome (control, treated, inhibition, significance) (Carcinogen: VINYL CARBAMATE, 15805-73-9, Dose [Inhibitor]: 0, 150 MG/KG BW ONCE AT 2 HR AND 1 D PRIOR TO CARCINOGEN DOSE (STUDY DURATION: 22 WK), Route [Inhibitor]: GAVAGE, Strain/Sex: CD-1/FEMALE, Target Tissue: Type of Lesion: SKIN: PAPILLOMA, Dose [Carcinogen]: 11.5 UMOL IN 0.2 ML ACETONE ONCE, Promoter: 12-O-TETRADECANOYLPHORBOL-13-ACETATE, 16561-29-8) | tumour outcome (control, treated, inhibition, significance) (Dose [Inhibitor]: 0, 6 PPM IN DIET BEGINNING 6 WK POST CARCINOGEN DOSE AND CONTINUING FOR 65 WK (STUDY DURATION: 65 WK), Route [Inhibitor]: ORAL, Strain/Sex: B6C3F1/FEMALE, Target Tissue: Type of Lesion: LIVER: TUMOR, Dose [Carcinogen]: 6 MG/KG ONCE, Promoter: NONE USED) | tumour outcome (control, treated, inhibition, significance) (Dose [Inhibitor]: 0, 6 PPM IN PELLET DIET FOR 1 YR BEGINNING 7 WK POST CARCINOGEN (STUDY DURATION: 60 WK), Route [Inhibitor]: ORAL, Strain/Sex: B6C3F1/FEMALE, Target Tissue: Type of Lesion: LIVER: HEPATOCELLULAR ADENOMA, Dose [Carcinogen]: 6 MG/KG ONCE) | tumour outcome (control, treated, inhibition, significance) (Dose [Inhibitor]: 0, 6 PPM IN PELLET DIET FOR 1 YR BEGINNING 7 WK POST CARCINOGEN (STUDY DURATION: 60 WK), Route [Inhibitor]: ORAL, Strain/Sex: B6C3F1/FEMALE, Target Tissue: Type of Lesion: LIVER: HEPATOCELLULAR TUMOR, Dose [Carcinogen]: 6 MG/KG ONCE) | tumour outcome (control, treated, inhibition, significance) (Dose [Inhibitor]: 0, 12 PPM IN DIET BEGINNING 6 WK POST CARCINOGEN DOSE AND CONTINUING FOR 65 WK (STUDY DURATION: 65 WK), Route [Inhibitor]: ORAL, Strain/Sex: B6C3F1/FEMALE, Target Tissue: Type of Lesion: LIVER: TUMOR, Dose [Carcinogen]: 6 MG/KG ONCE, Promoter: NONE USED) | tumour outcome (control, treated, inhibition, significance) (Dose [Inhibitor]: 0, 12 PPM IN DIET BEGINNING 6 WK POST CARCINOGEN DOSE AND CONTINUING FOR 65 WK (STUDY DURATION: 65 WK), Route [Inhibitor]: ORAL, Strain/Sex: B6C3F1/MALE, Target Tissue: Type of Lesion: LIVER: TUMOR, Dose [Carcinogen]: 6 MG/KG ONCE, Promoter: NONE USED) | tumour outcome (control, treated, inhibition, significance) (Dose [Inhibitor]: 0, 12 PPM IN DIET FOR 1 YR BEGINNING 7 WK POST CARCINOGEN (STUDY DURATION: 60 WK), Route [Inhibitor]: ORAL, Strain/Sex: B6C3F1/MALE, Target Tissue: Type of Lesion: LIVER: HEPATOCELLULAR CARCINOMA, Dose [Carcinogen]: 6 MG/KG ONCE) | tumour outcome (control, treated, inhibition, significance) (Dose [Inhibitor]: 0, 12 PPM IN PELLET DIET FOR 1 YR BEGINNING 7 WK POST CARCINOGEN (STUDY DURATION : 60 WK), Route [Inhibitor]: ORAL, Strain/Sex: B6C3F1/FEMALE, Target Tissue: Type of Lesion: LIVER: HEPATOCELLULAR ADENOMA, Dose [Carcinogen]: 6 MG/KG ONCE) | tumour outcome (control, treated, inhibition, significance) (Dose [Inhibitor]: 0, 12 PPM IN PELLET DIET FOR 1 YR BEGINNING 7 WK POST CARCINOGEN (STUDY DURATION : 60 WK), Route [Inhibitor]: ORAL, Strain/Sex: B6C3F1/FEMALE, Target Tissue: Type of Lesion: LIVER: HEPATOCELLULAR CARCINOMA, Dose [Carcinogen]: 6 MG/KG ONCE) | tumour outcome (control, treated, inhibition, significance) (Dose [Inhibitor]: 0, 12 PPM IN PELLET DIET FOR 1 YR BEGINNING 7 WK POST CARCINOGEN (STUDY DURATION : 60 WK), Route [Inhibitor]: ORAL, Strain/Sex: B6C3F1/FEMALE, Target Tissue: Type of Lesion: LIVER: HEPATOCELLULAR TUMOR, Dose [Carcinogen]: 6 MG/KG ONCE) | tumour outcome (control, treated, inhibition, significance) (Dose [Inhibitor]: 0, 12 PPM IN PELLET FOR 1 YR BEGINNING 7 WK POST CARCINOGEN (STUDY DURATION: 60 WK), Route [Inhibitor]: ORAL, Strain/Sex: B6C3F1/MALE, Target Tissue: Type of Lesion: LIVER: HEPATOCELLULAR TUMOR, Dose [Carcinogen]: 6 MG/KG ONCE)
1 | Cc1csc(NC(=O)C(C(=O)OC(C)C)=C2SCS2)n1 | 92%, 73%, 21%, not calculated | 92%, 75%, 18%, not calculated | 58%, 37%, 36%, not calculated |  |  |  |  |  |  |  |  |  | 
2 | CC1=C[C@H]2O[C@@H]3[C@H](O)[C@@H](O)[C@](C)([C@@]2(CO)[C@H](O)C1=O)[C@]31CO1 |  |  |  | 8/26 (31%), 3/15 (20%), 35%, not significant | 6/26 (23%), 1/15 (7%), 70%, not calculated | 8/26 (31%), 3/15 (20%), 35%, not significant | 8/26 (31%), 0/19 (0%), 100%, p<0.01 | 19/19 (100%), 18/18 (100%), 0%, not significant | 17/19 (89%), 15/18 (83%), 7%, not calculated | 6/26 (23%), 0/19 (0%), 100%, not calculated | 1/26 (4%), 0/19 (0%), 100%, not calculated | 8/26 (31%), 0/19 (0%), 100%, p<0.01 | 19/19 (100%), 18/18 (100%), 0%, not significant
